{"source": "ChEMBL document CHEMBL5661943", "about": "“ASAP - In vitro antiviral effect” (2024)", "key": {"dengue virus type 2 [1]": {"tested_on": "dengue virus type 2", "test": "Functional immunofluorescence assay to measure dose dependent changes in antiviral-drug inhibitory efficacy against Dengue virus type 2 Thailand/16681/84 in Vero E6/TMPRSS2 cells (cotreated with P-gp inhibitor, Elacridar). Cells are treated with antiviral candidates that are serially diluted, following infection, cells are fixed. EC50 is reported via analysis of immunofluorescence staining. The assay has been performed by Icahn School of Medicine at Mount Sinai.", "assay_type": "organism-based, Chlorocebus sabaeus, VeroE6/TMPRSS2", "conditions": "Dengue virus"}, "Zika virus [2]": {"tested_on": "Zika virus", "test": "EC50 is reported via analysis of immunofluorescence staining. The assay has been performed by Icahn School of Medicine at Mount Sinai.", "assay_type": "functional, organism-based, Chlorocebus sabaeus, VeroE6/TMPRSS2", "conditions": "for EC90: P-gp concentration 2 uM, P-gp inhibitor Elacidar"}, "Zika virus [3]": {"tested_on": "Zika virus", "test": "Functional CPE-based assay to measure dose dependent changes in antiviral-drug inhibitory efficacy against Zika virus MR766 in Vero E6 miRFP670 cells (cotreated with P-gp inhibitor, CP100356). Cells are treated with antiviral candidates that are serially diluted. EC50 is reported via analysis of MTS assay as a readout of CPE. The assay has been performed by KU Leuven.", "assay_type": "organism-based, Chlorocebus sabaeus, Vero C1008", "conditions": "Zika virus, Vero C1008"}, "dengue virus type 2 [4]": {"tested_on": "dengue virus type 2", "test": "Functional assay to measure dose dependent changes in antiviral-drug inhibitory efficacy against Dengue virus type 2 New Guinea C in Vero E6 miRFP670 cells (cotreated with P-gp inhibitor, CP100356). Cells are treated with antiviral candidates that are serially diluted, following infection, cells are fixed. EC50 is reported via analysis of fluorescence intensity using high-content imager. The …", "assay_type": "organism-based, Chlorocebus sabaeus, Vero C1008", "conditions": "Dengue virus, Vero C1008; for EC90: Baseline response 0 %, Maximum response 100 %, P-gp concentration 500 nM, P-gp inhibitor CP100356"}}}
{"smiles": "CNC(=O)[C@H](Nc1ccc2c(c1)CNC2)c1cc(Cl)cc(C2CC2)c1", "values": [{"measurement": "EC50", "setting": "dengue virus type 2 [1]; VeroE6/TMPRSS2", "result": "> 50", "unit": "µM"}, {"measurement": "EC90", "setting": "dengue virus type 2 [1]; VeroE6/TMPRSS2, Maximum measured 162.297 %, Minimum measured 85.868 %, P-gp concentration 2 uM, P-gp inhibitor Elacidar", "result": "> 50", "unit": "µM"}, {"measurement": "EC90", "setting": "Zika virus [2]; Zika virus, VeroE6/TMPRSS2, Maximum measured 135.998 %, Minimum measured 64.507 %", "result": "> 16.7", "unit": "µM"}, {"measurement": "EC90", "setting": "Zika virus [2]; Zika virus, VeroE6/TMPRSS2, Baseline response 0 %, Hill slope -0.359, Maximum measured 94.864 %, Maximum response 100 %, Minimum measured 60.283 %, R squared 0.436", "result": "> 5.56", "unit": "µM"}, {"measurement": "EC50", "setting": "Zika virus [2]; veroe6/tmprss2", "result": "> 16.7", "unit": "µM"}, {"measurement": "EC50", "setting": "Zika virus [3]", "result": 3.04, "unit": "µM"}, {"measurement": "EC90", "setting": "Zika virus [3]; Baseline response 0 %, EC90 CI (lower) 0.152 uM, EC90 CI (upper) 118.856 uM, Hill slope 6.595, Maximum measured 181.208 %, Maximum response 100 %, Minimum measured 1.929 %, P-gp concentration 500 nM, R squared 0.623, P-gp inhibitor CP100356", "result": 4.25, "unit": "µM"}]}
{"smiles": "O=C(Nc1ccc2c(c1)CNC2)c1cc(Br)cc2[nH]c(Cc3ccccc3)nc12", "values": [{"measurement": "EC50", "setting": "dengue virus type 2 [4]", "result": 2.23, "unit": "µM"}, {"measurement": "EC90", "setting": "dengue virus type 2 [4]; Hill slope -0.825, Maximum measured 88.647 %, Minimum measured 23.774 %, R squared 0.436", "result": "> 6.25", "unit": "µM"}, {"measurement": "EC50", "setting": "dengue virus type 2 [1]; VeroE6/TMPRSS2", "result": "> 16.7", "unit": "µM"}, {"measurement": "EC90", "setting": "dengue virus type 2 [1]; VeroE6/TMPRSS2, Maximum measured 134.005 %, Minimum measured 55.42 %, P-gp concentration 2 uM, P-gp inhibitor Elacidar", "result": "> 16.7", "unit": "µM"}, {"measurement": "EC50", "setting": "Zika virus [2]; Zika virus, VeroE6/TMPRSS2", "result": "> 1.85", "unit": "µM"}, {"measurement": "EC90", "setting": "Zika virus [2]; Zika virus, VeroE6/TMPRSS2, Maximum measured 133.577 %, Minimum measured 80.808 %", "result": "> 1.85", "unit": "µM"}]}
{"smiles": "O=C(Nc1cc(Cl)cc([C@H]2CN(Cc3ccccc3)C[C@@H]2c2cccc(-c3nn[nH]n3)c2)c1)OCc1ccccc1", "values": [{"measurement": "EC50", "setting": "dengue virus type 2 [4]", "result": 7.89, "unit": "µM"}, {"measurement": "EC90", "setting": "dengue virus type 2 [4]; EC90 CI (lower) 5.235 uM, EC90 CI (upper) 7.261 uM, Hill slope -8.911, Maximum measured 94.205 %, Minimum measured 1.534 %, R squared 0.94", "result": 10.1, "unit": "µM"}, {"measurement": "EC50", "setting": "dengue virus type 2 [1]; VeroE6/TMPRSS2", "result": 3.42, "unit": "µM"}, {"measurement": "EC90", "setting": "dengue virus type 2 [1]; VeroE6/TMPRSS2", "result": 5.71, "unit": "µM"}, {"measurement": "EC50", "setting": "Zika virus [2]; Zika virus, VeroE6/TMPRSS2", "result": 7.98, "unit": "µM"}, {"measurement": "EC90", "setting": "Zika virus [2]; Zika virus, VeroE6/TMPRSS2, Baseline response 15.017 %, Hill slope -78.318, Maximum measured 79.355 %, Maximum response 65.758 %, Minimum measured 8.182 %, R squared 0.629", "result": 8.21, "unit": "µM"}]}
{"smiles": "NCCCCc1ccc(NC(=O)c2cc(Cl)cc(NC(=O)OCc3ccccc3)c2)cc1", "values": [{"measurement": "EC50", "setting": "dengue virus type 2 [4]", "result": 4.18, "unit": "µM"}, {"measurement": "EC90", "setting": "dengue virus type 2 [4]; EC90 CI (lower) 1.854 uM, EC90 CI (upper) 4.634 uM, Hill slope -6.186, Maximum measured 92.478 %, Minimum measured 7.244 %, R squared 0.772", "result": 5.96, "unit": "µM"}, {"measurement": "EC50", "setting": "dengue virus type 2 [1]; VeroE6/TMPRSS2", "result": "> 5.56", "unit": "µM"}, {"measurement": "EC90", "setting": "dengue virus type 2 [1]; VeroE6/TMPRSS2, Maximum measured 145.088 %, Minimum measured 103.355 %, P-gp concentration 2 uM, P-gp inhibitor Elacidar", "result": "> 5.56", "unit": "µM"}, {"measurement": "EC50", "setting": "Zika virus [2]; Zika virus, VeroE6/TMPRSS2", "result": "> 5.56", "unit": "µM"}, {"measurement": "EC90", "setting": "Zika virus [2]; Zika virus, VeroE6/TMPRSS2, Maximum measured 140.797 %, Minimum measured 81.401 %", "result": "> 5.56", "unit": "µM"}]}
{"smiles": "NCc1cccc(NC(=O)c2cc(Cl)cc(-n3cccc3)c2)c1", "values": [{"measurement": "EC50", "setting": "dengue virus type 2 [4]", "result": 14.4, "unit": "µM"}, {"measurement": "EC90", "setting": "dengue virus type 2 [4]; EC90 CI (lower) 7.414 uM, EC90 CI (upper) 19.74 uM, Hill slope -12.44, Maximum measured 108.218 %, Minimum measured 0.325 %, R squared 0.952", "result": 17.2, "unit": "µM"}, {"measurement": "EC50", "setting": "dengue virus type 2 [1]; VeroE6/TMPRSS2", "result": 13.9, "unit": "µM"}, {"measurement": "EC90", "setting": "dengue virus type 2 [1]; VeroE6/TMPRSS2, Baseline response 0 %, Hill slope -2.713, Maximum measured 77.83 %, Maximum response 65.791 %, Minimum measured 24.724 %, P-gp concentration 2 uM, R squared 0.597, P-gp inhibitor Elacidar", "result": "> 16.7", "unit": "µM"}, {"measurement": "EC50", "setting": "Zika virus [2]; Zika virus, VeroE6/TMPRSS2", "result": "> 5.56", "unit": "µM"}, {"measurement": "EC90", "setting": "Zika virus [2]; Zika virus, VeroE6/TMPRSS2, Maximum measured 124.363 %, Minimum measured 74.851 %", "result": "> 5.56", "unit": "µM"}]}
